One experiment has as its target human α7 nAChRs (Homo sapiens, UniProt P36544). Description: cell-based.
The next experiment concerns the target human α9α10 nAChRs (Homo sapiens, UniProt Q9GZZ6+Q9UGM1). Description: cell-based.

This passage reports IC50 results from paper PMC11444331 (Journal of medicinal chemistry, 2024).

Structures are written as SMILES. Bridge positions count the residues as written; N and C are the ends. Peptide text beside a SMILES is read from it.

Sequence of human α9α10 nAChRs (Q9UGM1 26-479 limits assumed): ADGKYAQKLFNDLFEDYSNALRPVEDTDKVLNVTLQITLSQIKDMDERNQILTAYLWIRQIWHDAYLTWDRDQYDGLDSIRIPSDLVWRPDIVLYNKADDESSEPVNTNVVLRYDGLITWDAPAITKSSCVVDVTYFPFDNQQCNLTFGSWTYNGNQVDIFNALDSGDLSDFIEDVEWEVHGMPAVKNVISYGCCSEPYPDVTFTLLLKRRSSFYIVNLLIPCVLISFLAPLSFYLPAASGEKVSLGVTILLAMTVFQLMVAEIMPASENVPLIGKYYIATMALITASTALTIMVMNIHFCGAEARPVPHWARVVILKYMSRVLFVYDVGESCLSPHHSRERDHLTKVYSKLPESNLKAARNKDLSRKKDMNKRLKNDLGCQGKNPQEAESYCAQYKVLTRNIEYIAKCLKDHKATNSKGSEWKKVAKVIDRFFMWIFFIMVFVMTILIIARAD
Sequence of human α9α10 nAChRs (Q9GZZ6 25-450 limits assumed): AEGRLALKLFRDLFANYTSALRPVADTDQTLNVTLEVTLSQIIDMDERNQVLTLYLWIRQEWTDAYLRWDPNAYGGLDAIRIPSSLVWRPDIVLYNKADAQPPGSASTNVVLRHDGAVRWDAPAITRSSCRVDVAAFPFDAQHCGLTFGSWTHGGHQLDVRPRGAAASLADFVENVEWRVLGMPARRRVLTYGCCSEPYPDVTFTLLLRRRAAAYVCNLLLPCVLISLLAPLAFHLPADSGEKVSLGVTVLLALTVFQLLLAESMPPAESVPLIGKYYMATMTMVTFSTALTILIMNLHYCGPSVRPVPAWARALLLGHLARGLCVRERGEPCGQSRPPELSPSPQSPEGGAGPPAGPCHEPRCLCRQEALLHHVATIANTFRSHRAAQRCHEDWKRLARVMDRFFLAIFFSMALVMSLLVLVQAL
Sequence of human α7 nAChRs (P36544 23-502 limits assumed): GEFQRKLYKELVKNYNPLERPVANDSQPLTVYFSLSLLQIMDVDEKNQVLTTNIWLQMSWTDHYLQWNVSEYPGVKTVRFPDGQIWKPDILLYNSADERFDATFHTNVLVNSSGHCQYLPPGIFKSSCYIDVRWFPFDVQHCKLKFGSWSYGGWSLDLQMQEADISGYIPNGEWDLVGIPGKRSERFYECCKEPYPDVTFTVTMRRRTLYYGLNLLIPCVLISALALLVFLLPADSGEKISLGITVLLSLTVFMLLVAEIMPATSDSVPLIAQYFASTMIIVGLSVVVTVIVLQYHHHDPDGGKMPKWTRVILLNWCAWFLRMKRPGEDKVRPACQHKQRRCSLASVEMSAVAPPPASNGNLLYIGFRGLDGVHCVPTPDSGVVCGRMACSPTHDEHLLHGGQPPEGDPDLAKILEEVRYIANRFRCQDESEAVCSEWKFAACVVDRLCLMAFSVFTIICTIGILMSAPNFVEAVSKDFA

Consider `C[C@@H]1NC(=O)[C@H](CCCNC(=N)N)NC(=O)[C@H](CO)NC(=O)[C@H](CCCNC(=N)N)NC(=O)[C@H](CO)NC(=O)[C@@H]2CSSC[C@H](NC(=O)CN)C(=O)N[C@@H](CSSC[C@@H](C(N)=O)NC(=O)[C@H](CO)NC(=O)[C@H](CO)NC1=O)C(=O)N[C@@H](CO)C(=O)N[C@@H](Cc1c[nH]cn1)C(=O)N1CCC[C@H]1C(=O)N[C@@H](C)C(=O)N2` [conofurin-Delta-SRSRASS] (H-GCCSHPACSRSRASSC-NH2; disulfide 2-8, 3-16), for which the values for the IC50 against human α7 nAChRs and against human α9α10 nAChRs were 5.4 µM and over 10 µM, respectively.
